Assay results: patent US12440568B2 (priority 2010, dated 2025)

Key:
[1] = Company studies of solubility and sustained release
[2] = system: TCC cell cultures and human bladder tumor tissue cultures; conditions: cited from earlier work
[3] = system: Cell lines of human bladder cancer; experiment: MTT viability assay, MMC in DTC-2 versus MMC in saline; type: cell-based; conditions: cell lines exposed to MMC
Procedure: An in-vitro study was performed to evaluate the efficacy of DTCx materials as cytotoxic agents in the urinary bladder. […] Viability was assessed by MTT assay which tests mitochondrial function.
Cell lines of human bladder cancer were grown in RPMI 1640 medium, supplemented with FBS, 100 U/ml penicillin and […] streptomycin. […] After 2 hours of incubation, medium was replaced with fresh medium for all plates.
The plates were tested by taking out the medium and adding fresh medium containing MTT reagent. All other plates were returned to the incubator for incubation of 24, 72, 120 and 144 h. MTT assays were used to assess toxicity at all time points. The proportion of living cells was calculated by comparison to the control vehicle.
A microplate reader (EL 312e: Bio-Tek Instruments, Winooski VT) was used to evaluate the presence of […] as a color development measured by absorbance spectroscopy at 450 nm. Background optical density (OD) was subtracted from the OD readings of all samples. Cell viability was calculated by dividing the mean OD absorbance values of the treated wells by the mean OD absorbance of the control wells. All samples were tested in triplicate.
Reference is now made to FIGS. 3A-3D, which show graphs of cell viability as a function of time for various experiments.

Row | Molecule | Solubility and release behaviour in the invented platform [1] | Concentration needed for similar cell kill effect when exposure reduced from 24 hours to two hours [2] | Higher cell kill with 10× longer exposure time or 10× higher concentration [3]
1 | COc1cccc2c1C(=O)c1c(O)c3c(c(O)c1C2=O)C[C@@](O)(C(=O)CO)C[C@@H]3O[C@H]1C[C@H](N)[C@H](O)[C@H](C)O1 [Doxorubicin] | solubility and first order sustained release |  | 
2 | Nc1ccn([C@@H]2O[C@H](CO)[C@@H](O)C2(F)F)c(=O)n1 [Gemcitabin] | solubility and first order sustained release |  | 
3 | CO[C@@]12[C@H](COC(N)=O)C3=C(C(=O)C(C)=C(N)C3=O)N1C[C@@H]1N[C@@H]12 [MMC, Mitomycin C] |  | ten times higher concentration | up to 30 ×
4 | O=C(O)Cc1ccccc1Nc1c(Cl)cccc1Cl [voltaren] | solubility and first order sustained release |  | 
5 | Abamectin | solubility and first order sustained release |  | 
